From the supplement of paper PMC10307832

Assays:
Test in all cases: relative viability (nuclei count vs DMSO), 5 days (fraction); higher = more cells survive
HCC-44 = system: HCC-44
Method in brief: (§1)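 Nuclei were stained with Hoechst during a one-step fixation (final 0.05% Triton X-100, 1% formaldehyde, 1 ug/ml Hoechst) carried out 5 days after dosing, then counted on 4× images. The cells, lung cancer lines in 1536-well plates, had been dosed by pin tool the day after seeding with one drug alone or a fixed anchor-drug dose plus five library-drug doses (not always all listed) in √10 steps. Relative viability is the nuclei count in treated wells divided by that in vehicle wells, and each value is the median of duplicate plates.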

COR-L23 = system: COR-L23
Method in brief: as §1

PC-14 = system: PC-14
Method in brief: as §1

LU99A = system: LU99A
Method in brief: as §1

NCI-H522 = system: NCI-H522
Method in brief: as §1

HCC-15 = system: HCC-15
Method in brief: as §1

NCI-H2087 = system: NCI-H2087
Method in brief: as §1

SK-MES-1 = system: SK-MES-1
Method in brief: as §1

HARA = system: HARA
Method in brief: as §1

NCI-H2170 = system: NCI-H2170
Method in brief: as §1

LC-2-ad = system: LC-2-ad
Method in brief: as §1

HCC-827 = system: HCC-827
Method in brief: as §1

HOP-62 = system: HOP-62
Method in brief: as §1

LXF-289 = system: LXF-289
Method in brief: as §1

LCLC-97TM1 = system: LCLC-97TM1
Method in brief: as §1

COR-L 105 = system: COR-L 105
Method in brief: as §1

NCI-H1993 = system: NCI-H1993
Method in brief: as §1

HCC-366 = system: HCC-366
Method in brief: as §1

NCI-H2009 = system: NCI-H2009
Method in brief: as §1

NCI-H2126 = system: NCI-H2126
Method in brief: as §1

PC-3 [JPC-3] = system: PC-3 [JPC-3]
Method in brief: as §1

Question: Which relative viability (HCC-44; first compound 0.2 µM) does the source give for `COCC1(CO)C(=O)C2CCN1CC2` (stereo not drawn) [PRIMA-1MET] + Nc1ncn([C@H]2C[C@H](O)[C@@H](CO)O2)c(=O)n1 [Decitabine] (partner 2 µM) here?
Answer: 1.04

Question: And the relative viability (HCC-44; first compound 0.6325 µM)?
Answer: 0.595

Question: And the relative viability (HCC-44; first compound 2 µM)?
Answer: 0.998

Question: And the relative viability (HCC-44; first compound 6.325 µM)?
Answer: 0.942

Question: What about the relative viability (HCC-44; first compound 20 µM) of the same molecule?
Answer: 0.93

Question: What about the relative viability (COR-L23; first compound 0.2 µM) of the same molecule?
Answer: 0.538

Question: And the relative viability (COR-L23; first compound 0.6325 µM)?
Answer: 0.243

Question: And the relative viability (COR-L23; first compound 2 µM)?
Answer: 0.397

Question: And the relative viability (COR-L23; first compound 6.325 µM)?
Answer: 0.439

Question: And the relative viability (COR-L23; first compound 20 µM)?
Answer: 0.036

Question: And the relative viability (PC-14; first compound 0.2 µM)?
Answer: 0.18

Question: What about the relative viability (PC-14; first compound 0.6325 µM) of the same molecule?
Answer: 0.109

Question: And the relative viability (PC-14; first compound 2 µM)?
Answer: 0.211

Question: What about the relative viability (PC-14; first compound 6.325 µM) of the same molecule?
Answer: 0.21

Question: What about the relative viability (PC-14; first compound 20 µM) of the same molecule?
Answer: 0.0433

Question: What about the relative viability (LU99A; first compound 0.2 µM) of the same molecule?
Answer: 0.776

Question: What about the relative viability (LU99A; first compound 0.6325 µM) of the same molecule?
Answer: 0.722

Question: What about the relative viability (LU99A; first compound 2 µM) of the same molecule?
Answer: 0.888

Question: And the relative viability (LU99A; first compound 6.325 µM)?
Answer: 0.674

Question: What about the relative viability (LU99A; first compound 20 µM) of the same molecule?
Answer: 0.51

Question: And the relative viability (NCI-H522; first compound 0.2 µM)?
Answer: 0.648

Question: And the relative viability (NCI-H522; first compound 0.6325 µM)?
Answer: 0.592

Question: And the relative viability (NCI-H522; first compound 2 µM)?
Answer: 0.573

Question: What about the relative viability (NCI-H522; first compound 6.325 µM) of the same molecule?
Answer: 0.672

Question: And the relative viability (NCI-H522; first compound 20 µM)?
Answer: 0.178

Question: And the relative viability (HCC-15; first compound 0.2 µM)?
Answer: 0.663

Question: And the relative viability (HCC-15; first compound 0.6325 µM)?
Answer: 0.373

Question: What about the relative viability (HCC-15; first compound 2 µM) of the same molecule?
Answer: 0.647

Question: What about the relative viability (HCC-15; first compound 6.325 µM) of the same molecule?
Answer: 0.585

Question: What about the relative viability (HCC-15; first compound 20 µM) of the same molecule?
Answer: 0.563

Question: What about the relative viability (NCI-H2087; first compound 0.6325 µM) of the same molecule?
Answer: 0.226

Question: And the relative viability (NCI-H2087; first compound 2 µM)?
Answer: 0.315

Question: And the relative viability (NCI-H2087; first compound 6.325 µM)?
Answer: 0.251

Question: And the relative viability (NCI-H2087; first compound 20 µM)?
Answer: 0.174

Question: And the relative viability (SK-MES-1; first compound 0.2 µM)?
Answer: 0.381

Question: What about the relative viability (SK-MES-1; first compound 0.6325 µM) of the same molecule?
Answer: 0.32

Question: What about the relative viability (SK-MES-1; first compound 2 µM) of the same molecule?
Answer: 0.376

Question: And the relative viability (SK-MES-1; first compound 6.325 µM)?
Answer: 0.339

Question: What about the relative viability (SK-MES-1; first compound 20 µM) of the same molecule?
Answer: 0.337

Question: What about the relative viability (HARA; first compound 0.2 µM) of the same molecule?
Answer: 0.478

Question: What about the relative viability (HARA; first compound 0.6325 µM) of the same molecule?
Answer: 0.354

Question: And the relative viability (HARA; first compound 2 µM)?
Answer: 0.622

Question: What about the relative viability (HARA; first compound 6.325 µM) of the same molecule?
Answer: 0.607

Question: And the relative viability (HARA; first compound 20 µM)?
Answer: 0.607

Question: And the relative viability (NCI-H2170; first compound 0.2 µM)?
Answer: 0.42

Question: What about the relative viability (NCI-H2170; first compound 0.6325 µM) of the same molecule?
Answer: 0.324

Question: What about the relative viability (NCI-H2170; first compound 2 µM) of the same molecule?
Answer: 0.43

Question: And the relative viability (NCI-H2170; first compound 6.325 µM)?
Answer: 0.457

Question: And the relative viability (NCI-H2170; first compound 20 µM)?
Answer: 0.457

Question: And the relative viability (LC-2-ad; first compound 0.2 µM)?
Answer: 0.902

Question: And the relative viability (LC-2-ad; first compound 0.6325 µM)?
Answer: 0.607

Question: What about the relative viability (LC-2-ad; first compound 2 µM) of the same molecule?
Answer: 0.773

Question: What about the relative viability (LC-2-ad; first compound 6.325 µM) of the same molecule?
Answer: 0.776

Question: What about the relative viability (LC-2-ad; first compound 20 µM) of the same molecule?
Answer: 0.776

Question: What about the relative viability (HCC-827; first compound 0.2 µM) of the same molecule?
Answer: 0.343

Question: What about the relative viability (HCC-827; first compound 0.6325 µM) of the same molecule?
Answer: 0.157

Question: What about the relative viability (HCC-827; first compound 2 µM) of the same molecule?
Answer: 0.302

Question: And the relative viability (HCC-827; first compound 6.325 µM)?
Answer: 0.384

Question: What about the relative viability (HCC-827; first compound 20 µM) of the same molecule?
Answer: 0.305

Question: What about the relative viability (HOP-62; first compound 0.2 µM) of the same molecule?
Answer: 0.22

Question: What about the relative viability (HOP-62; first compound 0.6325 µM) of the same molecule?
Answer: 0.217

Question: And the relative viability (HOP-62; first compound 2 µM)?
Answer: 0.207

Question: What about the relative viability (HOP-62; first compound 6.325 µM) of the same molecule?
Answer: 0.203

Question: What about the relative viability (HOP-62; first compound 20 µM) of the same molecule?
Answer: 0.169

Question: And the relative viability (LXF-289; first compound 0.2 µM)?
Answer: 0.383

Question: And the relative viability (LXF-289; first compound 0.6325 µM)?
Answer: 0.306

Question: And the relative viability (LXF-289; first compound 2 µM)?
Answer: 0.349

Question: What about the relative viability (LXF-289; first compound 6.325 µM) of the same molecule?
Answer: 0.373

Question: And the relative viability (LXF-289; first compound 20 µM)?
Answer: 0.372

Question: What about the relative viability (LCLC-97TM1; first compound 0.2 µM) of the same molecule?
Answer: 0.286

Question: And the relative viability (LCLC-97TM1; first compound 0.6325 µM)?
Answer: 0.163

Question: And the relative viability (LCLC-97TM1; first compound 2 µM)?
Answer: 0.209

Question: What about the relative viability (LCLC-97TM1; first compound 6.325 µM) of the same molecule?
Answer: 0.153

Question: And the relative viability (LCLC-97TM1; first compound 20 µM)?
Answer: 0.246

Question: What about the relative viability (COR-L 105; first compound 0.2 µM) of the same molecule?
Answer: 0.695

Question: What about the relative viability (COR-L 105; first compound 0.6325 µM) of the same molecule?
Answer: 0.619

Question: What about the relative viability (COR-L 105; first compound 2 µM) of the same molecule?
Answer: 0.551

Question: What about the relative viability (COR-L 105; first compound 6.325 µM) of the same molecule?
Answer: 0.597

Question: And the relative viability (COR-L 105; first compound 20 µM)?
Answer: 0.179

Question: And the relative viability (NCI-H1993; first compound 0.2 µM)?
Answer: 0.57

Question: What about the relative viability (NCI-H1993; first compound 2 µM) of the same molecule?
Answer: 0.57

Question: What about the relative viability (NCI-H1993; first compound 6.325 µM) of the same molecule?
Answer: 0.731

Question: What about the relative viability (NCI-H1993; first compound 20 µM) of the same molecule?
Answer: 0.564

Question: And the relative viability (HCC-366; first compound 0.2 µM)?
Answer: 0.325

Question: What about the relative viability (HCC-366; first compound 0.6325 µM) of the same molecule?
Answer: 0.12

Question: What about the relative viability (HCC-366; first compound 2 µM) of the same molecule?
Answer: 0.294

Question: And the relative viability (HCC-366; first compound 6.325 µM)?
Answer: 0.423

Question: What about the relative viability (HCC-366; first compound 20 µM) of the same molecule?
Answer: 0.0554

Question: And the relative viability (NCI-H2009; first compound 0.2 µM)?
Answer: 0.383

Question: And the relative viability (NCI-H2009; first compound 0.6325 µM)?
Answer: 0.389

Question: What about the relative viability (NCI-H2009; first compound 2 µM) of the same molecule?
Answer: 0.341

Question: And the relative viability (NCI-H2009; first compound 6.325 µM)?
Answer: 0.345

Question: And the relative viability (NCI-H2009; first compound 20 µM)?
Answer: 0.153

Question: And the relative viability (NCI-H2126; first compound 0.2 µM)?
Answer: 0.59

Question: What about the relative viability (NCI-H2126; first compound 0.6325 µM) of the same molecule?
Answer: 0.579

Question: What about the relative viability (NCI-H2126; first compound 2 µM) of the same molecule?
Answer: 0.544

Question: And the relative viability (NCI-H2126; first compound 6.325 µM)?
Answer: 0.631

Question: What about the relative viability (NCI-H2126; first compound 20 µM) of the same molecule?
Answer: 0.619

Question: And the relative viability (PC-3 [JPC-3]; first compound 0.2 µM)?
Answer: 0.822

Question: And the relative viability (PC-3 [JPC-3]; first compound 0.6325 µM)?
Answer: 0.712

Question: What about the relative viability (PC-3 [JPC-3]; first compound 2 µM) of the same molecule?
Answer: 0.841

Question: What about the relative viability (PC-3 [JPC-3]; first compound 6.325 µM) of the same molecule?
Answer: 0.84

Question: What about the relative viability (PC-3 [JPC-3]; first compound 20 µM) of the same molecule?
Answer: 0.802
